Consider two compounds from patent publication US9642922B2, “Caspase-triggered nano-aggregation probes and methods of use” (The Board of Trustees of the Leland Stanford Junior …, priority 2013, dated 2017).

Numbered stars: 1 amine (or outer) side, 2 acyl side, 3 side chain; on linkers, the order of the positions; unused ones are H or OH. Square brackets hold non-standard residues; d marks the D form. Peptide text beside a SMILES is read from it. * marks the point of attachment. DOTA = O=C(O)CN1CCN(CC(=O)O)CCN(CC(=O)*)CCN(CC(=O)O)CC1; X1 = O=C(C1CSC(c2nc3ccc(N[*:1])cc3s2)=N1)[*:2]; X2 = N#Cc1ccc2cc(OCCCN*)ccc2n1; SEt = CCS*

Assay [1] deals with T1, caspase-9 (Homo sapiens, UniProt P55211).
T1 construct: purchased Calbiochem; host or cells: E. coli
T1 sequence (P55211 1-315 limits assumed): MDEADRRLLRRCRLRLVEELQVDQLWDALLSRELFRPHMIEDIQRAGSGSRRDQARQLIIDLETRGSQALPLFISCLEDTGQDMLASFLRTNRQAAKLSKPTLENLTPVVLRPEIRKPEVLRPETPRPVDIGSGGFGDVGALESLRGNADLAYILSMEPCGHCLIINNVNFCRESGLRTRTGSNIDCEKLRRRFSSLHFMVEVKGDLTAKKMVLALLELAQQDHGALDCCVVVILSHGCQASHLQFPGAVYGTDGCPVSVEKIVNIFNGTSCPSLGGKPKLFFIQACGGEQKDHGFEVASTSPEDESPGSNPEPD
The assay is described as follows: HPLC enzyme specificity assay of C-SNAF, caspase-9. The assay is classed as biochemical. Particulars: 25 μM probe, 0.735 μg/ml enzyme. As for the experimental part: (§1) The specificity of C-SNAF towards other representative cysteine proteases such as caspase-7, caspase-9, cathepsin B, and legumain was examined.
(§2) Caspase (human, recombinant from E. coli) assays were performed for caspase-3 (4.9×10^−3 U; 7.35×10^−4 mg, Sigma), −7 (18.3 U; 7.35×10^−4 mg, Calbiochem), and −9 (0.3 U; 7.35×10^−4 mg, Calbiochem). All caspase assays were conducted in caspase buffer with 50 mM HEPES, 100 mM NaCl, 1 mM EDTA, 10 mM TCEP, 10% glycerol, and 0.1% CHAPS at pH 7.4. Cathepsin B (human liver; 0.27 U; 7.35×10^−4 mg, Calbiochem) and Legumain (human, recombinant from mouse myeloma cell line; >250 pmol/min/μg; 7.35×10^−4 mg, R&D Systems) were conducted in reaction buffer with 50 mM sodium acetate, 50 mM NaCl, 0.5 mM EDTA and 10 mM TCEP at pH 5.5. C-SNAF was diluted in the respective enzyme reaction buffer (25 μM, 1 mL) and remained at room temperature for 10 min, to which was then added the respective enzymes. Reactions were performed at 37° C., and monitored by HPLC hourly. The percentage conversion of the reaction was calculated based on the percentage of peak area of C-SNAF-cycl in the HPLC trace at 675 nm UV detection, which indicated the efficacy of enzyme cleavage of C-SNAF.

In assay [2] the target is T2, cathepsin B (Homo sapiens, UniProt P07858).
T2 construct: Cathepsin B (human liver; 0.27 U; 7.35×10^−4 mg, Calbiochem); purchased Calbiochem; host or cells: human liver (tissue-derived)
The assay is described as follows: HPLC enzyme specificity assay of C-SNAF, cathepsin B. The assay is classed as biochemical. Particulars: 25 μM probe, 0.735 μg/ml enzyme, pH 5.5. As for the experimental part:
as §1, §2

The next assay concerns the target T3, legumain (Homo sapiens, UniProt Q99538).
T3 construct: purchased R&D Systems; host or cells: mouse myeloma cell line
Put plainly: HPLC enzyme specificity assay of C-SNAF, legumain. The format is biochemical. Particulars: 25 μM probe, 0.735 μg/ml enzyme, pH 5.5. As for the experimental part: as §1, §2

The test system of assay [3] is STS-induced apoptotic HeLa cells. Put plainly: Flow cytometry of STS-induced apoptotic HeLa cells labeled with probes. The assay is classed as cell-based, human. On the procedure: Approximately 10^5 HeLa cells in 1 mL DMEM medium were seeded onto 12-well plates. […] For the inhibitor blocking experiment, the STS-treated cells were first incubated with the caspase inhibitor Z-VAD-fmk (50 μM, R&D Systems) for 30 min, and then 2 μM C-SNAF was added. All cells incubations were 24 h, followed by staining with FLICA (FAM) after trypsinization. After washing with PBS (1×) three times, the cell pellets were resuspended in 300 μL PBS and applied for flow cytometry analysis using the FITC and Cy5.5 channels. The cell number for each flow cytometry analysis was approximately 5000 to 10000, and the data was processed using FlowJo software.

For assay [4], the target named is T4, caspase-3 (Homo sapiens, UniProt P42574).
T4 sequence (P42574 29-175 limits assumed): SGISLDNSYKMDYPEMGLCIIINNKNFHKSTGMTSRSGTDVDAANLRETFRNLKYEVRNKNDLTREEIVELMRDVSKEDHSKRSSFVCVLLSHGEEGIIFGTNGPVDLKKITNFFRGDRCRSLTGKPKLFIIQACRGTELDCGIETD
T4 sequence (P42574 176-277 limits assumed): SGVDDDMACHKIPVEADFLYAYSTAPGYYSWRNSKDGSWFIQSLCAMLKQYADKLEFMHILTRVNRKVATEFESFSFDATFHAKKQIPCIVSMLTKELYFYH
The assay is described as follows: HPLC assay of caspase-3-triggered macrocyclization of C-SNAF. The assay is classed as biochemical. Set-up: purchased Sigma; host or cells: E. coli. Particulars: probe 25 μM, caspase-3, 6 h. As for the experimental part: The progression of caspase-3-triggered macrocyclization of C-SNAF to form C-SNAF-cycl in solution was monitored using high-performance liquid chromatography (HPLC) following incubation of the probe (25 μM) with recombinant human caspase-3 (4.9×10^−[…]).
as §2

The target of assay [5] is T1, caspase-9. Put plainly: T1 measurement of probe 15 with caspase-9. Particulars: probe 208 μM, protease 50 nM, 1 T. The format is biochemical. On the procedure: (§3) The enzyme specificity of probe 15 was studied by measuring the T1 value resulting from probe incubation (208 μM) with any of five relevant subcellular proteases (caspase-3, -7, -9, cathepsin B and legumain) in enzyme buffer. […] The reduced T1 value in solution was inhibited by the caspase inhibitor Z-VAD-fmk (50 μM).
Caspase (human, recombinant from E. coli) assays were performed for caspase-3 (4.9×10^−3 U; 7.35×10^−4 mg, Sigma), −7 (18.3 U; 7.35×10^−4 mg, Calbiochem), and −9 (0.3 U; 7.35×10^−4 mg, Calbiochem). All caspase assays were conducted in caspase buffer with 50 mM HEPES, 100 mM NaCl, 1 mM EDTA, 10 mM TCEP, 10% glycerol, and 0.1% CHAPS at pH 7.4.

Assay [6] addresses T2, cathepsin B. The assay is described as follows: T1 measurement of probe 15 with cathepsin B. The assay is classed as biochemical. Particulars: probe 208 μM, protease 50 nM, 1 T. As for the experimental part:
as §3
Cathepsin B (human liver; 0.27 U; 7.35×10^−4 mg, Calbiochem) and Legumain (human, recombinant from mouse myeloma cell line; >250 pmol/min/μg; 7.35×10^−4 mg, R&D Systems) were conducted in reaction buffer with 50 mM sodium acetate, 50 mM NaCl, 0.5 mM EDTA and 10 mM TCEP at pH 5.5. The C-SNAF was diluted in the respective enzyme reaction buffer (25 μM, 1 mL) and remained at room temperature for 10 min, to which was added respective enzymes.

A further assay deals with HeLa cells. Put plainly: ICP-MS cellular uptake of Gd in HeLa cells. The format is cell-based, human. The conditions noted are these: 250 μM probe, 24 h. On the procedure: The cellular uptake of Gd was studied by inductively-coupled plasma mass spectrometry (ICP-MS) analysis of the amount of Gd in viable and apoptotic cells after incubation with probe 15 (50-250 μM) for 24 h. […] This uptake enhancement was inhibitable by Z-VAD-fmk (50 μM), confirming the caspase-3-dependent accumulation of probe 15 in apoptotic cells.

The subject of a further assay is HeLa cell pellets. Put plainly: MRI T1 of HeLa cell pellets at 1 T. The assay is classed as cell-based, human. Particulars: 250 μM, 24 h. From the text: Thus, higher caspase-3 activity in apoptotic cells can trap probe 15 inside cells, resulting in higher MRI contrast for cell apoptosis imaging.
The target in assay [7] is T4, caspase-3. The assay is described as follows: HPLC assay of caspase-3-triggered cyclization of MRI probe 15. The format is biochemical. Set-up: purchased Sigma; host or cells: E. coli. Particulars: 200 μM probe, caspase-3 50 nM, 5 h. On the procedure:
The progression of caspase-3-triggered intramolecular cyclization of probe 15 in solution was investigated by incubation (200 μM) with recombinant human caspase-3 (50 nM) using high-performance liquid chromatography (HPLC). […] More than 90% of probe 15 and its disulfide bond reduced intermediates could be converted after 5 h (FIG. 27B).

T3 sequence (Q99538 18-323): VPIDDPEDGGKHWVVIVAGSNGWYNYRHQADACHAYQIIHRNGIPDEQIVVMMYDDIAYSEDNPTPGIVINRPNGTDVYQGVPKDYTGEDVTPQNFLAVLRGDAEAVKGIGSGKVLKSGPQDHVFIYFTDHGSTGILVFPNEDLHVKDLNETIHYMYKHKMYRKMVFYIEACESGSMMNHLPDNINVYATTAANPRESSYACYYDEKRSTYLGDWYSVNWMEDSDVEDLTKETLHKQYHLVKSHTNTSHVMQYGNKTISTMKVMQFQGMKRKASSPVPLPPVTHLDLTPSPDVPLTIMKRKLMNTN

`CCSSC[C@@H](NC(=O)[C@H](CC(=O)O)NC(=O)[C@@H](NC(=O)[C@H](CCC(=O)O)NC(=O)[C@H](CC(=O)O)NC(C)=O)C(C)C)C(=O)N[C@@H](CCCCNC(=O)CCCCCN1C(=CC=CC=CC2=[N+](CC)c3ccc4c(S(=O)(=O)[O-])cc(S(=O)(=O)O)cc4c3C2(C)C)C(C)(C)c2c1ccc1c(S(=O)(=O)O)cc(S(=O)(=O)O)cc21)C(=O)Nc1ccc2nc(C3=N[C@@H](C(=O)NCCCOc4ccc5nc(C#N)ccc5c4)CS3)sc2c1` [C-SNAF]: the “activity of caspase-9 towards probe” value at caspase-9 [1] was “essentially no activity”. The “activation by cathepsin B” value on cathepsin B [2] is on record as “neither lysosomal cysteine proteases cathepsin B nor legumain could significantly activate”. The activation by legumain result on legumain is recorded as “neither lysosomal cysteine proteases cathepsin B nor legumain could significantly activate”. The “labeling of FLICA-positive apoptotic cells” value in assay [3] (2 μM probe, STS-induced apoptotic HeLa) is given as “efficiently labeled”. In assay [3] (2 μM probe, STS-treated HeLa, flow cytometry), the “increase in Cy5.5 fluorescence of apoptotic relative to viable cells” value is given as approximately 13 fold. Also, the “effect of caspase inhibitor Z-VAD-fmk on the increased fluorescence” value in assay [3] (Z-VAD-fmk 50 μM) is given as “inhibited by Z-VAD-fmk”. For the same compound, the “conversion to C-SNAF-cycl after 6 h” value at caspase-3 [4] is on record as “almost completely converted to C-SNAF-cycl”.

`CCSSCC(NC(=O)C(CC(=O)O)NC(=O)C(NC(=O)C(CCC(=O)O)NC(=O)C(CC(=O)O)NC(C)=O)C(C)C)C(=O)NC(CCCCNC(=O)CN1CCN(CC(=O)[O-])CCN(CC(=O)[O-])CCN(CC(=O)[O-])CC1)C(=O)Nc1ccc2nc(C3=NC(C(=O)NCCCOc4ccc5nc(C#N)ccc5c4)CS3)sc2c1.[Gd+3]` (stereo not drawn) [probe 15] (Ac-DEVDC(SEt)K(DOTA)[X1]-X2; configuration not given here): the “T1 value after incubation with caspase-9” value at caspase-9 [5] is given as “No reduced T1 value”. Further, the “T1 value after incubation with cathepsin B” value on cathepsin B [6] was “No reduced T1 value”. Besides, the “cellular uptake of Gd in STS-treated versus non-treated cells” value in the assay on HeLa cells was found to be 6.6 fold. The “reduction of T1 value in STS-treated versus non-treated cell pellets” value in the assay with HeLa cell pellets is listed as “about 3 fold”. Moreover, the “probe and disulfide-reduced intermediates converted to cyclized products” value at caspase-3 [7] is on record as “More than 90%”.
